Tested on: Jurkat cells
Conditions: Jurkat cells dyed with 50 μM reagent in PBS; UV 365 nm 10 minutes vs no UV
Method: 1 mL of Jurkat cells 3.0×10^6 cells/PBS (−), the Jurkat cells being human leukemia T cell lines, was prepared in a 1.5 mL Eppendorf tube, and centrifuged at 200×g for five minutes. The supernatant was removed, and 1 mL of a 50 μM MeNPOC-biotin-sulfo-NHS ester.Na/PBS solution was added thereto. The mixture was shielded from light by an aluminum foil, and allowed to stand at room temperature for 20 minutes. The mixture was centrifuged at 200×g for five minutes, and the supernatant was removed. The residue was resuspended in 1 mL of PBS (−) and centrifuged again at 200×g for five minutes, and the supernatant was removed. PBS (−) was added thereto, and the cell concentration was measured with a cell counter, and then the concentration was adjusted to 1.5×10^5 cells/mL. The cells were added dropwise at 0.1 mL/well to a COC film bottom 96 well plate that had been soaked with 1% BSA overnight, and centrifuged at 120×g for one minute to precipitate the cells on a well bottom surface. Subsequently, the sample was irradiated with UV light from the well bottom surface side for 10 minutes using a UV-LED (LED 365-SPT, Optocode, λp=365 nm, about 17 mW/cm^2). As a comparison, a sample not irradiated with UV light was allowed to stand for 10 minutes. The cell suspension was collected from the wells, and PBS was added thereto to adjust the volume to 0.8 mL. […]

Substance: MeNPOC-biotin-sulfo-NHS ester sodium salt
- fluorescence intensity (adsorption of Alexa Fluor 488 labeled streptavidin): fluorescence intensity changed depending on presence or absence of UV irradiation

— patent US20220170859A1, “PARTICLE LABELING REAGENT, PARTICLE DYEING METHOD, AND MICROSCOPIC SYSTEM” (SONY GROUP CORPORATION, priority 2019, published 2022)
